The supplement of paper PMC10307832

Columns and labels:
Experiment in all cases: relative viability (nuclei count vs DMSO), 5 days (fraction); higher = more cells survive
IMD-0354 + OSI-027 = compound: O=C(Nc1cc(C(F)(F)F)cc(C(F)(F)F)c1)c1cc(Cl)ccc1O [IMD-0354] + COc1cccc2cc(-c3nc([C@H]4CC[C@H](C(=O)O)CC4)n4ncnc(N)c34)[nH]c12 [OSI-027] (partner 0.5 µM)
Procedure, shortened: (§1)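 Relative viability was taken as the ratio of nuclei in treated wells to nuclei in vehicle wells. Lung cancer cell lines in 1536-well plates received compounds by pin tool one day after seeding, either one drug alone or a fixed anchor-drug dose plus five library-drug doses (not always all listed) in √10 steps. Nuclei were counted on 4× images after 5 days of treatment, and values are medians of duplicate plates.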

IMD-0354 + Alpelisib = compound: O=C(Nc1cc(C(F)(F)F)cc(C(F)(F)F)c1)c1cc(Cl)ccc1O [IMD-0354] + Cc1nc(NC(=O)N2CCC[C@H]2C(N)=O)sc1-c1ccnc(C(C)(C)C(F)(F)F)c1 [Alpelisib] (partner 2 µM)
Procedure, shortened: as §1

IMD-0354 + Vorinostat = compound: O=C(Nc1cc(C(F)(F)F)cc(C(F)(F)F)c1)c1cc(Cl)ccc1O [IMD-0354] + O=C(CCCCCCC(=O)Nc1ccccc1)NO [Vorinostat] (partner 1 µM)
Procedure, shortened: as §1

IMD-0354 + Linsitinib = compound: O=C(Nc1cc(C(F)(F)F)cc(C(F)(F)F)c1)c1cc(Cl)ccc1O [IMD-0354] + C[C@]1(O)C[C@@H](c2nc(-c3ccc4ccc(-c5ccccc5)nc4c3)c3c(N)nccn32)C1 [Linsitinib] (partner 1 µM)
Procedure, shortened: as §1

NCI-H1944
relative viability (IMD-0354 + OSI-027; first compound 0.04 µM): 0.441 | relative viability (IMD-0354 + OSI-027; first compound 0.1265 µM): 0.445 | relative viability (IMD-0354 + OSI-027; first compound 0.4 µM): 0.375 | relative viability (IMD-0354 + OSI-027; first compound 1.265 µM): 0.317 | relative viability (IMD-0354 + OSI-027; first compound 4 µM): 0.161 | relative viability (IMD-0354 + Alpelisib; first compound 0.04 µM): 0.694 | relative viability (IMD-0354 + Alpelisib; first compound 0.1265 µM): 0.854 | relative viability (IMD-0354 + Alpelisib; first compound 1.265 µM): 0.902 | relative viability (IMD-0354 + Alpelisib; first compound 4 µM): 0.144 | relative viability (IMD-0354 + Vorinostat; first compound 0.04 µM): 0.496 | relative viability (IMD-0354 + Vorinostat; first compound 0.1265 µM): 0.575 | relative viability (IMD-0354 + Vorinostat; first compound 0.4 µM): 0.384 | relative viability (IMD-0354 + Vorinostat; first compound 1.265 µM): 0.251 | relative viability (IMD-0354 + Vorinostat; first compound 4 µM): 0.148 | relative viability (IMD-0354 + Linsitinib; first compound 0.04 µM): 1.08 | relative viability (IMD-0354 + Linsitinib; first compound 0.1265 µM): 1.12 | relative viability (IMD-0354 + Linsitinib; first compound 1.265 µM): 1.24 | relative viability (IMD-0354 + Linsitinib; first compound 4 µM): 0.111

NCI-H520
relative viability (IMD-0354 + OSI-027; first compound 0.04 µM): 0.297 | relative viability (IMD-0354 + OSI-027; first compound 0.1265 µM): 0.27 | relative viability (IMD-0354 + OSI-027; first compound 0.4 µM): 0.194 | relative viability (IMD-0354 + OSI-027; first compound 1.265 µM): 0.283 | relative viability (IMD-0354 + OSI-027; first compound 4 µM): 0.129 | relative viability (IMD-0354 + Alpelisib; first compound 0.04 µM): 0.906 | relative viability (IMD-0354 + Alpelisib; first compound 0.1265 µM): 0.948 | relative viability (IMD-0354 + Alpelisib; first compound 0.4 µM): 0.381 | relative viability (IMD-0354 + Alpelisib; first compound 1.265 µM): 0.383 | relative viability (IMD-0354 + Alpelisib; first compound 4 µM): 0.214 | relative viability (IMD-0354 + Vorinostat; first compound 0.04 µM): 0.815 | relative viability (IMD-0354 + Vorinostat; first compound 0.1265 µM): 0.709 | relative viability (IMD-0354 + Vorinostat; first compound 0.4 µM): 0.51 | relative viability (IMD-0354 + Vorinostat; first compound 1.265 µM): 0.192 | relative viability (IMD-0354 + Vorinostat; first compound 4 µM): 0.248 | relative viability (IMD-0354 + Linsitinib; first compound 0.04 µM): 1.16 | relative viability (IMD-0354 + Linsitinib; first compound 0.1265 µM): 0.816 | relative viability (IMD-0354 + Linsitinib; first compound 0.4 µM): 0.469 | relative viability (IMD-0354 + Linsitinib; first compound 1.265 µM): 0.187 | relative viability (IMD-0354 + Linsitinib; first compound 4 µM): 0.179

NCI-H460
relative viability (IMD-0354 + OSI-027; first compound 0.04 µM): 0.886 | relative viability (IMD-0354 + OSI-027; first compound 0.1265 µM): 0.626 | relative viability (IMD-0354 + OSI-027; first compound 0.4 µM): 0.225 | relative viability (IMD-0354 + OSI-027; first compound 1.265 µM): 0.0286 | relative viability (IMD-0354 + OSI-027; first compound 4 µM): 0.0262 | relative viability (IMD-0354 + Alpelisib; first compound 0.04 µM): 0.544 | relative viability (IMD-0354 + Alpelisib; first compound 0.1265 µM): 0.49 | relative viability (IMD-0354 + Alpelisib; first compound 0.4 µM): 0.2 | relative viability (IMD-0354 + Alpelisib; first compound 1.265 µM): 0.0672 | relative viability (IMD-0354 + Alpelisib; first compound 4 µM): 0.0154 | relative viability (IMD-0354 + Vorinostat; first compound 0.04 µM): 0.552 | relative viability (IMD-0354 + Vorinostat; first compound 0.1265 µM): 1.09 | relative viability (IMD-0354 + Vorinostat; first compound 0.4 µM): 0.445 | relative viability (IMD-0354 + Vorinostat; first compound 1.265 µM): 0.0405 | relative viability (IMD-0354 + Vorinostat; first compound 4 µM): 0.0422 | relative viability (IMD-0354 + Linsitinib; first compound 0.04 µM): 1.2 | relative viability (IMD-0354 + Linsitinib; first compound 0.1265 µM): 0.709 | relative viability (IMD-0354 + Linsitinib; first compound 0.4 µM): 0.278 | relative viability (IMD-0354 + Linsitinib; first compound 1.265 µM): 0.0367 | relative viability (IMD-0354 + Linsitinib; first compound 4 µM): 0.0126

EKVX
relative viability (IMD-0354 + OSI-027; first compound 0.04 µM): 0.771 | relative viability (IMD-0354 + OSI-027; first compound 0.1265 µM): 0.685 | relative viability (IMD-0354 + OSI-027; first compound 0.4 µM): 0.629 | relative viability (IMD-0354 + OSI-027; first compound 1.265 µM): 0.631 | relative viability (IMD-0354 + OSI-027; first compound 4 µM): 0.19 | relative viability (IMD-0354 + Alpelisib; first compound 0.04 µM): 0.931 | relative viability (IMD-0354 + Alpelisib; first compound 0.1265 µM): 0.992 | relative viability (IMD-0354 + Alpelisib; first compound 1.265 µM): 0.73 | relative viability (IMD-0354 + Alpelisib; first compound 4 µM): 0.179 | relative viability (IMD-0354 + Vorinostat; first compound 0.04 µM): 0.469 | relative viability (IMD-0354 + Vorinostat; first compound 0.1265 µM): 0.754 | relative viability (IMD-0354 + Vorinostat; first compound 0.4 µM): 0.556 | relative viability (IMD-0354 + Vorinostat; first compound 1.265 µM): 0.691 | relative viability (IMD-0354 + Vorinostat; first compound 4 µM): 0.359 | relative viability (IMD-0354 + Linsitinib; first compound 0.04 µM): 1.1 | relative viability (IMD-0354 + Linsitinib; first compound 0.1265 µM): 0.961 | relative viability (IMD-0354 + Linsitinib; first compound 1.265 µM): 0.743 | relative viability (IMD-0354 + Linsitinib; first compound 4 µM): 0.232
